Measurements as given in PubChem BioAssay AID192 (DTP/NCI, 2004).
Where “and” joins values, the source holds several entries; their conditions need not be identical. Equal values may be shown once. Toxic doses and inconclusive results are not listed. Rule for the calls: active = survival T/C of 150% or more; inactive = T/C below 125% in these data. Peptide text beside a SMILES is read from it.

Test system: BDF1 mice, B16 melanoma ip, median survival T/C
Experiment: NCI In Vivo Anticancer Drug Screen. Data for tumor model B16 Melanoma (intraperitoneal) in B6D2F1 (BDF1) mice
Conditions: endpoint: median survival time, higher = longer survival
In short: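 Transplantable tumor model; survival or tumor size measured; reported as T/C, treated over vehicle control.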

[1] = dose: 100.0 mg/kg/injection, schedule: Q01DX009 (ip), vehicle: Klucel (hydroxypropylcellulose) (HPC)
[2] = dose: 200.0 mg/kg/injection, schedule: Q01DX009 (ip), vehicle: Klucel (hydroxypropylcellulose) (HPC)
[3] = dose: 50.0 mg/kg/injection, schedule: Q01DX009 (ip), vehicle: saline
[4] = dose: 100.0 mg/kg/injection, schedule: Q01DX009 (ip), vehicle: saline
[5] = dose: 200.0 mg/kg/injection, schedule: Q01DX009 (ip), vehicle: saline
[6] = dose: 25.0 mg/kg/injection, schedule: Q01DX009 (ip), vehicle: Klucel (hydroxypropylcellulose) (HPC)
[7] = dose: 50.0 mg/kg/injection, schedule: Q01DX009 (ip), vehicle: Klucel (hydroxypropylcellulose) (HPC)

Measured: T/C

O=Nc1c(N=O)c(N=O)c(N=O)c(N=O)c1N=O
inactive: dose: 1.25 mg/kg/injection, schedule: Q01DX009 (ip), vehicle: saline with Tween-80 108 % of control | dose: 2.5 mg/kg/injection, schedule: Q01DX009 (ip), vehicle: saline with Tween-80 105 % of control | dose: 5.0 mg/kg/injection, schedule: Q01DX009 (ip), vehicle: saline with Tween-80 88 % of control and 100 % of control | dose: 10.0 mg/kg/injection, schedule: Q01DX009 (ip), vehicle: saline with Tween-80 104 % of control | dose: 20.0 mg/kg/injection, schedule: Q01DX009 (ip), vehicle: saline with Tween-80 87 % of control

Cc1cc(=O)n2c3c(c(N)ccc13)OC2
inactive: [1] 100 % of control | [2] 92 % of control

CSCCC(N)C(=O)NC(CC(N)=O)C(=O)O (stereo not drawn) (H-Met-Asn-OH; configuration not given here)
inactive: dose: 25.0 mg/kg/injection, schedule: Q01DX009 (ip), vehicle: saline 103 % of control | [3] 108 % of control | [4] 96 % of control | [5] 89 % of control

NC(=O)NO
inactive: dose: 37.5 mg/kg/injection, schedule: Q03HX024 (ip), vehicle: saline 95 % of control and 100 % of control | dose: 75.0 mg/kg/injection, schedule: Q03HX024 (ip), vehicle: saline 95 % of control | dose: 150.0 mg/kg/injection, schedule: Q01DX009 (ip), vehicle: water 95 % of control | dose: 150.0 mg/kg/injection, schedule: Q01DX017 (ip), vehicle: water 93 % of control | dose: 150.0 mg/kg/injection, schedule: Q## X009 (ip), vehicle: water 95 % of control | dose: 300.0 mg/kg/injection, schedule: Q01DX009 (ip), vehicle: water 100 % of control | dose: 300.0 mg/kg/injection, schedule: Q01DX017 (ip), vehicle: water 97 % of control | dose: 300.0 mg/kg/injection, schedule: Q## X009 (ip), vehicle: water 93 % of control | dose: 600.0 mg/kg/injection, schedule: Q## X009 (ip), vehicle: water 100 % of control | dose: 2400.0 mg/kg/injection, schedule: Q01DX001 (ip), vehicle: water 100 % of control

COc1cccc2c1C(=O)c1c(O)c3c(c(O)c1C2=O)CC(O)(C(C)=O)CC3OC1CC(N)C(O)C(C)O1 (stereo not given)
116 % of control and 267 % of control: dose: 23.4 mg/kg/injection, schedule: Q01DX009 (ip), vehicle: saline
active: dose: 2.5 mg/kg/injection, schedule: Q01DX007 (ip), vehicle: water 154 % of control | dose: 2.5 mg/kg/injection, schedule: Q01DX009 (ip), vehicle: water 163 % of control | dose: 5.0 mg/kg/injection, schedule: Q01DX007 (ip), vehicle: water 154 % of control | dose: 5.0 mg/kg/injection, schedule: Q01DX009 (ip), vehicle: water 190 % of control | dose: 5.8 mg/kg/injection, schedule: Q01DX009 (ip), vehicle: saline 258 % of control | dose: 10.0 mg/kg/injection, schedule: Q01DX007 (ip), vehicle: water 163 % of control | dose: 10.0 mg/kg/injection, schedule: Q01DX009 (ip), vehicle: water 218 % of control | dose: 20.0 mg/kg/injection, schedule: Q01DX007 (ip), vehicle: water 339 % of control | dose: 20.0 mg/kg/injection, schedule: Q01DX009 (ip), vehicle: water 231 % of control | dose: 23.4 mg/kg/injection, schedule: Q04DX003 (ip), vehicle: saline 212 % of control | dose: 46.8 mg/kg/injection, schedule: Q04DX003 (ip), vehicle: saline 275 % of control | dose: 93.6 mg/kg/injection, schedule: Q04DX003 (ip), vehicle: saline 275 % of control
122 % of control and 267 % of control: dose: 11.7 mg/kg/injection, schedule: Q01DX009 (ip), vehicle: saline

C[C@@H](CN1CC(=O)NC(=O)C1)N1CC(=O)NC(=O)C1
inactive: dose: 8.0 mg/kg/injection, schedule: Q01DX009 (ip), vehicle: saline with Tween-80 100 % of control | dose: 16.0 mg/kg/injection, schedule: Q01DX009 (ip), vehicle: saline with Tween-80 117 % of control | dose: 16.0 mg/kg/injection, schedule: Q01DX009 (ip), vehicle: water 107 % of control and 122 % of control | dose: 25.0 mg/kg/injection, schedule: Q04DX003 (ip), vehicle: water 101 % of control and 107 % of control | dose: 32.0 mg/kg/injection, schedule: Q01DX009 (ip), vehicle: saline with Tween-80 112 % of control | dose: 32.0 mg/kg/injection, schedule: Q01DX009 (ip), vehicle: water 111 % of control | dose: 50.0 mg/kg/injection, schedule: Q04DX003 (ip), vehicle: water 103 % of control | dose: 100.0 mg/kg/injection, schedule: Q04DX003 (ip), vehicle: water 104 % of control and 112 % of control | dose: 128.0 mg/kg/injection, schedule: Q01DX009 (ip), vehicle: water 113 % of control | dose: 200.0 mg/kg/injection, schedule: Q04DX003 (ip), vehicle: water 103 % of control | dose: 256.0 mg/kg/injection, schedule: Q01DX009 (ip), vehicle: water 87 % of control | dose: 400.0 mg/kg/injection, schedule: Q04DX003 (ip), vehicle: water 117 % of control | dose: 800.0 mg/kg/injection, schedule: Q04DX003 (ip), vehicle: water 88 % of control

CCCC(C(=O)O)C(CCC)C(=O)O (stereo not given)
inactive: dose: 100.0 mg/kg/injection, schedule: Q04DX003 (ip), vehicle: saline with Tween-80 97 % of control | dose: 200.0 mg/kg/injection, schedule: Q04DX003 (ip), vehicle: saline with Tween-80 88 % of control | dose: 400.0 mg/kg/injection, schedule: Q04DX003 (ip), vehicle: saline with Tween-80 88 % of control

CN(C)NCCC#N
104 % of control and 206 % of control: dose: 75.0 mg/kg/injection, schedule: Q01DX009 (ip), vehicle: saline
inactive: dose: 33.0 mg/kg/injection, schedule: Q01DX009 (ip), vehicle: saline 101 % of control | [3] 104 % of control | dose: 113.0 mg/kg/injection, schedule: Q01DX009 (ip), vehicle: saline 100 % of control

O=C(O)CCc1cccnc1
inactive: [3] 104 % of control | [4] 107 % of control | [5] 106 % of control | dose: 400.0 mg/kg/injection, schedule: Q01DX009 (ip), vehicle: saline 107 % of control

C/C(=N/N=C(N)N)c1ccc(NC(=O)Nc2ccc(/C(C)=N/N=C(N)N)cc2)cc1
inactive: [6] 99 % of control | [7] 121 % of control | [2] 120 % of control

[N-]=[N+]=C1C(=O)NN=C1c1ccccc1
inactive: [1] 105 % of control

CCOC(=O)c1cncc(C(=O)OCC)c1
inactive: [1] 107 % of control | [2] 113 % of control | dose: 400.0 mg/kg/injection, schedule: Q01DX009 (ip), vehicle: Klucel (hydroxypropylcellulose) (HPC) 106 % of control

COc1cc2c[n+](C)c3c4cc5c(cc4ccc3c2cc1OC)OCO5 (tested in a mixture with another compound)
inactive: dose: 0.78 mg/kg/injection, schedule: Q01DX009 (ip), vehicle: distilled water + Tween-80 105 % of control | dose: 1.56 mg/kg/injection, schedule: Q01DX009 (ip), vehicle: distilled water + Tween-80 97 % of control | dose: 3.13 mg/kg/injection, schedule: Q01DX009 (ip), vehicle: distilled water + Tween-80 118 % of control | dose: 5.0 mg/kg/injection, schedule: Q01DX009 (ip), vehicle: saline 116 % of control | dose: 6.25 mg/kg/injection, schedule: Q01DX009 (ip), vehicle: Klucel (hydroxypropylcellulose) (HPC) 110 % of control | dose: 12.5 mg/kg/injection, schedule: Q01DX009 (ip), vehicle: Klucel (hydroxypropylcellulose) (HPC) 124 % of control | [6] 114 % of control | [7] 92 % of control | dose: 80.0 mg/kg/injection, schedule: Q01DX009 (ip), vehicle: saline 98 % of control
active: dose: 40.0 mg/kg/injection, schedule: Q01DX009 (ip), vehicle: saline 159 % of control

COc1cc(C[C@H]2c3cc(OC)c(OC)cc3CCN2C)c(Oc2cc3c(cc2OC)-c2c(OC)c(OC)cc4c2[C@H](C3)N(C)CC4)cc1OC
inactive: dose: 3.0 mg/kg/injection, schedule: Q01DX009 (ip), vehicle: saline with Tween-80 93 % of control | dose: 6.25 mg/kg/injection, schedule: Q01DX009 (ip), vehicle: saline with Tween-80 92 % of control and 95 % of control | dose: 12.5 mg/kg/injection, schedule: Q01DX009 (ip), vehicle: saline with Tween-80 88 % of control and 97 % of control and 107 % of control | dose: 75.0 mg/kg/injection, schedule: Q01DX009 (ip), vehicle: saline with Tween-80 87 % of control
